From the NIST ThermoML archive (doi:10.1021/je700644s)

Legend:
[1] = molar heat capacity at constant pressure; conditions: 101.33 kPa, Crystal
[2] = Crystal; visual observation

N[C@@H](Cc1ccc(O)c(O)c1)C(=O)O [L-3,4-dihydroxyphenylalanine]
[1]
Conditions | molar heat capacity at constant pressure [J/K/mol]
78.47 K | 71.34
79.83 K | 72.35
81.49 K | 73.75
83 K | 75.18
84.82 K | 76.68
86.63 K | 78.19
88.44 K | 79.6
89.94 K | 80.73
91.35 K | 82.27
93.06 K | 83.62
94.81 K | 84.79
97.14 K | 86.2
98.89 K | 87.89
100.72 K | 89.28
102.64 K | 90.78
104.71 K | 92.24
106.74 K | 93.97
108.74 K | 95.89
110.71 K | 97.8
112.66 K | 99.36
114.58 K | 101.07
116.47 K | 103
118.5 K | 104.72
120.65 K | 106.43
122.77 K | 108.44
124.86 K | 110.39
126.96 K | 112.16
129.01 K | 113.95
131.02 K | 115.5
133.03 K | 117.12
135.03 K | 118.6
136.99 K | 120.14
138.96 K | 121.84
140.87 K | 123.73
142.78 K | 125.45
144.7 K | 127.02
146.71 K | 128.82
148.67 K | 130.53
150.67 K | 132.25
152.73 K | 133.85
154.83 K | 135.87
156.88 K | 137.96
158.94 K | 139.53
160.94 K | 141.56
162.95 K | 143.5
164.96 K | 144.99
166.92 K | 146.4
168.93 K | 148.17
170.89 K | 150.21
172.8 K | 151.86
174.76 K | 153.4
176.68 K | 155.02
178.59 K | 156.36
180.49 K | 157.89
182.37 K | 159.54
184.4 K | 161.1
186.39 K | 162.67
188.35 K | 164.31
190.45 K | 165.92
192.51 K | 167.41
194.57 K | 169.47
196.6 K | 171.19
198.74 K | 173.02
200.73 K | 174.55
202.72 K | 176.35
204.75 K | 178.18
206.74 K | 179.9
208.73 K | 181.7
210.72 K | 183.49
212.57 K | 185.1
214.57 K | 186.74
216.49 K | 188.38
218.41 K | 190.07
220.37 K | 191.82
222.25 K | 193.7
224.06 K | 195.34
226.73 K | 197.52
229.58 K | 199.77
232.56 K | 202.63
235.59 K | 205.29
238.77 K | 207.95
241.76 K | 210.58
244.74 K | 212.99
247.73 K | 215.37
250.77 K | 218.1
253.75 K | 220.62
256.74 K | 223
259.76 K | 225.81
262.77 K | 228.18
265.75 K | 230.91
268.6 K | 233.5
271.68 K | 236.23
274.76 K | 239.03
277.82 K | 242.01
280.88 K | 244.64
283.92 K | 247.23
286.95 K | 249.5
289.94 K | 252.13
292.92 K | 255.42
295.76 K | 258.06
298.79 K | 261
301.77 K | 263.53
304.66 K | 266.35
307.79 K | 269.29
310.97 K | 272.35
313.95 K | 275.23
317.08 K | 278.06
320.26 K | 281.06
323.2 K | 284.12
325.79 K | 286.4
328.38 K | 288.56
331.07 K | 291.45
333.76 K | 293.85
336.37 K | 296.31
338.98 K | 299.04
341.74 K | 301.82
344.65 K | 304.77
347.41 K | 307.5
350.17 K | 309.96
352.94 K | 312.58
355.85 K | 315.2
358.46 K | 317.71
361.22 K | 320.33
363.98 K | 323.17
366.59 K | 325.79
369.35 K | 328.08
372.11 K | 330.75
374.87 K | 333.1
377.49 K | 335.94
380.09 K | 338.83
382.85 K | 341.72
385.61 K | 344.62
388.83 K | 347.29
391.44 K | 350.03
394.35 K | 352.91
396.81 K | 355.28
399.26 K | 357.83

Conditions | Normal melting temperature [°C]
[2] | 277.00
